Where two headings read alike, the source gives them in different places.
Key:
[1] = biological target: cytoplasmic domain of VraS (VraS-C) (Staphylococcus aureus, UniProt Q99SZ7); experiment: biochemical; format: binding; settings: new run with His-tagged VraS; NB = No Binding; read-out: KD VraS
VraR = VraR (Staphylococcus aureus, UniProt Q7A4R9); experiment: biochemical; format: binding; settings: His-tagged VraR; NB = No Binding
[2] = biological target: PurC (unrelated protein, control) (Bacillus anthracis, UniProt Q81ZH5); format: binding; settings: read-out: KD PurC (control)
[3] = system: test strain 923 pPvra-lux; experiment: Secondary screen / synergy confirmation of Top 40, relative growth with oxacillin; format: cell-based, Staphylococcus aureus; settings: Top 40 library, compound at maximum non-GI conc
Description: In the secondary screen each microtiter plate contained either cells in TSB alone (16 replicates), cells with oxacillin (2 μg/mL, 31 replicates), or cells with test compound and oxacillin (2 μg/mL, 49 wells). Each compound was assayed in four separate biological replicates.
Synergy Confirmation of “Top 40”. […]

[4] = system: vraSR promoter (Pvra-lux reporter in strain 923); format: cell-based, Staphylococcus aureus; settings: for RL Ox avg: Top 40 library, with oxacillin, compound at maximum non-GI conc; for vraSR repressing synergist: overall class from syn and rep
Description: In the secondary screen each microtiter plate contained either cells in TSB alone (16 replicates), cells with oxacillin (2 μg/mL, 31 replicates), or cells with test compound and oxacillin (2 μg/mL, 49 wells). Each compound was assayed in four separate biological replicates. […]

[5] = system: test strain (923 pPvra-lux); experiment: Growth inhibition by compound alone (maximum non-growth-inhibitory concentration); format: cell-based, Staphylococcus aureus; settings: compound alone; maximum concentration where it did NOT inhibit growth
multiple strains of MRSA = experiment: MICs (minimal inhibitory concentrations) vs multiple strains of MRSA; format: cell-based, Staphylococcus aureus
[6] = system: test strain 923 pPvra-lux (USA300 MRSA); experiment: Primary screen, relative growth in presence of oxacillin; settings: compound 10 μM with oxacillin 2 μg/mL, absorbance 24 h, <0.50 = dead cells = hit
[7] = system: vraSR promoter (Pvra-lux reporter in strain 923); experiment: Primary screen, relative luminescence (vraSR expression)
[8] = isolate 923, SCCmec IV, ST 8, compound at 2 mg/L
[9] = isolate 1176, SCCmec II, ST 231, compound at 2 mg/L
[10] = isolate 2169, SCCmec IV, ST 72, compound at 2 mg/L
[11] = isolate 8004-01, SCCmec III, ST 239, compound at 2 mg/L
[12] = isolate 8010-01, SCCmec IV, ST 8, compound at 2 mg/L
[13] = isolate 8227-01, SCCmec IV, ST 87, compound at 2 mg/L
[14] = isolate 11095, SCCmec II, ST 105, compound at 2 mg/L
[15] = isolate 13113, SCCmec II, ST 5, compound at 2 mg/L
[16] = isolate 13354, SCCmec IV, ST 5, compound at 2 mg/L
[17] = isolate 14315, SCCmec IV, ST 1, compound at 2 mg/L
[18] = isolate Q2461, SCCmec VT, ST 59, compound at 2 mg/L
[19] = primary screen, compound 10 μM with oxacillin 2 μg/mL, <0.50 = vraSR repressed = hit

Chain of PurC (unrelated protein, control) (Q81ZH5 whole entry, looked up): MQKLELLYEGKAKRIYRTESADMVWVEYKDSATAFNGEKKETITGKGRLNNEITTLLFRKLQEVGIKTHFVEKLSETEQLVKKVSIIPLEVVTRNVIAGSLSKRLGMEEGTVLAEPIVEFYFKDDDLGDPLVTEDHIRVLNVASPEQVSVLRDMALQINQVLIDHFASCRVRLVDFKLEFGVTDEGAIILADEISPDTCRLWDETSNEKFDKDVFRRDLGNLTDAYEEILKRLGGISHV
Chain of VraR (Q7A4R9 whole entry): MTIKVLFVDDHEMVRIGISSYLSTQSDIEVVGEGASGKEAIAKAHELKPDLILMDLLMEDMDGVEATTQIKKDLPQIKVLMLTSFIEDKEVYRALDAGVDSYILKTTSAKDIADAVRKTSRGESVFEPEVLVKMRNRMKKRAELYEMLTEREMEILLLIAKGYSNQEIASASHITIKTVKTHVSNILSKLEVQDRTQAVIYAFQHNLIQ
Chain of cytoplasmic domain of VraS (VraS-C) (Q99SZ7 70-347): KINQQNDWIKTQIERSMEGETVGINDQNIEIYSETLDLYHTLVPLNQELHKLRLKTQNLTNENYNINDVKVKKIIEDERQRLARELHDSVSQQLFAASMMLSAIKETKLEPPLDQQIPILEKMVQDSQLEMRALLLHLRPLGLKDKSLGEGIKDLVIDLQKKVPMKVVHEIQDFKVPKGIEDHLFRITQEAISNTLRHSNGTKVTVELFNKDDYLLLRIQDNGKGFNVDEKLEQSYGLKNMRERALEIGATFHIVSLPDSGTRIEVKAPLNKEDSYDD

SMILES | Kd [1] [µM] | Kd (VraR) [µM] | Kd [2] [µM] | RG Ox avg [3] | RL Ox avg [4] | vraSR repressing synergist [4] | maximum non-GI conc [5] [µg/mL] | Ox MIC in presence of compound (multiple strains of MRSA; [8]) [mg/L] | Ox MIC in presence of compound (multiple strains of MRSA; [9]) [mg/L] | Ox MIC in presence of compound (multiple strains of MRSA; [10]) [mg/L] | Ox MIC in presence of compound (multiple strains of MRSA; [11]) [mg/L] | Ox MIC in presence of compound (multiple strains of MRSA; [12]) [mg/L] | Ox MIC in presence of compound (multiple strains of MRSA; [13]) [mg/L] | Ox MIC in presence of compound (multiple strains of MRSA; [14]) [mg/L] | Ox MIC in presence of compound (multiple strains of MRSA; [15]) [mg/L] | Ox MIC in presence of compound (multiple strains of MRSA; [16]) [mg/L] | Ox MIC in presence of compound (multiple strains of MRSA; [17]) [mg/L] | Ox MIC in presence of compound (multiple strains of MRSA; [18]) [mg/L] | RG avg (relative growth) [6] | RL avg (relative luminescence) [7, 19] | also measured
Cc1ccc(C)c(-c2nnc(NC(=O)c3cc(Cl)sc3Cl)o2)c1 [F2518-0360] | > 100 | > 100 | > 100 | – | – | – | – | – | – | – | – | – | – | – | – | – | – | – | – | – | –
COc1cccc(-c2nnc(NC(=O)c3ccc(Cl)s3)o2)c1 [F1374-0351] | > 100 | > 100 | > 100 | – | – | – | – | – | – | – | – | – | – | – | – | – | – | – | – | – | –
Fc1cccc(Nc2nc(Nc3ccc(F)c(Cl)c3)nc(N3CCOCC3)n2)c1 [F2703-0396] | – | – | – | 0.01 | 0.34 | 1. confirmed | 400 | <0.25 | <0.5 | <0.25 | 64 | <0.25 | <0.06 | <2 | <0.13 | <0.13 | <0.5 | <0.13 | 0.06 | 0.19 | –
Cc1ccc(-c2nnc(NC(=O)c3nc4ccccc4s3)o2)c(C)c1 [F2518-0183] | > 100 | > 100 | > 100 | – | – | – | – | – | – | – | – | – | – | – | – | – | – | – | – | – | –
O=C(Nc1ccc(Cl)c(Cl)c1)Nc1ccc2cn[nH]c2c1 [F5882-3050] | – | – | – | 0.02 | 0.07 | 1. confirmed | 400 | <0.25 | <0.5 | <0.25 | 32 | <0.25 | <0.06 | <2 | <0.13 | <0.13 | <0.5 | 0.5 | 0.39 | 0.25 | –
Cc1ccc(S(=O)(=O)Nc2ccccc2C(=O)Nc2nc3c(C)ccc(C)c3s2)cc1 [F1813-0712] | – | – | – | 0.71 | 0.20 | 2. possible | 400 | – | – | – | – | – | – | – | – | – | – | – | −0.01 | – | Ox MIC in presence of compound (multiple strains of MRSA; isolate 923, SCCmec IV, ST 8, compound at 4 mg/L): 4 mg/L; Ox MIC in presence of compound (multiple strains of MRSA; isolate 1176, SCCmec II, ST 231, compound at 4 mg/L): 16 mg/L; Ox MIC in presence of compound (multiple strains of MRSA; isolate 2169, SCCmec IV, ST 72, compound at 4 mg/L): 8 mg/L; Ox MIC in presence of compound (multiple strains of MRSA; isolate 8004-01, SCCmec III, ST 239, compound at 4 mg/L): 512 mg/L; Ox MIC in presence of compound (multiple strains of MRSA; isolate 8010-01, SCCmec IV, ST 8, compound at 4 mg/L): 16 mg/L; Ox MIC in presence of compound (multiple strains of MRSA; isolate 8227-01, SCCmec IV, ST 87, compound at 4 mg/L): 0.5 mg/L; Ox MIC in presence of compound (multiple strains of MRSA; isolate 11095, SCCmec II, ST 105, compound at 4 mg/L): 256 mg/L; Ox MIC in presence of compound (multiple strains of MRSA; isolate 13113, SCCmec II, ST 5, compound at 4 mg/L): 16 mg/L; Ox MIC in presence of compound (multiple strains of MRSA; isolate 13354, SCCmec IV, ST 5, compound at 4 mg/L): 8 mg/L; Ox MIC in presence of compound (multiple strains of MRSA; isolate 14315, SCCmec IV, ST 1, compound at 4 mg/L): 16 mg/L; Ox MIC in presence of compound (multiple strains of MRSA; isolate Q2461, SCCmec VT, ST 59, compound at 4 mg/L): 16 mg/L; RL avg (relative luminescence) [7]: 0.00

Reference: patent US9675592B2, “Methods and compositions for bacteria infections” (priority 2013, dated 2017)
